Results from EP4813463A2, “TYK2 INHIBITORS AND COMPOSITIONS AND METHODS THEREOF” (Lynk Pharmaceuticals Co. Ltd., priority 2023, dated 2024).

What was measured:
[1] = test system: Ba/F3-FL-TYK2-P760L cells; test: Anti-proliferative assay in engineered Ba/F3 cells (Cell-Titer Glo, 72 h); format: cell-based; conditions: Mus musculus, BaF3, 72 h, 72 h compound treatment, concentration that causes 50% growth inhibition, read-out: Baf3-FL-T2P760L
In short: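 IC50 from luminescent ATP viability after 72 h compound exposure (37 °C, 5% CO2), % inhibition normalised to DMSO-treated cells minus medium blank. IL-3-free Ba/F3-FL-TYK2-P760L (Tel-JAK fusion) cells in 10% FBS RPMI-1640 received 9 three-fold doses, top 20 µM, 0.1% DMSO.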

[2] = biological target: T1, JAK1-JH2 domain (Homo sapiens, UniProt P23458); test: Binding activity test for JH2 domain of JAK1 (Tb-antibody/tracer FRET); conditions: JH2 domain enzyme; 60 min at 25°C, then 4°C overnight; read-out: JAK1 JH2 Binding IC50
T1 construct: JAK1-JH2 domain or TYK2-JH2 domain enzyme in assay buffer
In short: (§1)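 IC50 values (nM) come from TR-FRET readings taken after a 25°C incubation followed by overnight at 4°C. Each well held JH2 domain protein, Tb-antibody, tracer and test compound titrated in 11 threefold steps, with DMSO high and low controls.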

[3] = biological target: T2, TYK2-JH2 domain (Homo sapiens, UniProt P29597); test: Binding activity test for JH2 domain of TYK2 (Tb-antibody/tracer FRET); conditions: for IC50: JH2 domain enzyme, 60 min at 25°C, then 4°C overnight, read-out: TYK2 JH2 Binding IC50; for JAK1/TYK2 selectivity: ratio of JAK1 JH2 to TYK2 JH2 binding IC50
T2 construct: JAK1-JH2 domain or TYK2-JH2 domain enzyme in assay buffer
In short: as §1

T1 sequence (P23458 583-855 limits assumed): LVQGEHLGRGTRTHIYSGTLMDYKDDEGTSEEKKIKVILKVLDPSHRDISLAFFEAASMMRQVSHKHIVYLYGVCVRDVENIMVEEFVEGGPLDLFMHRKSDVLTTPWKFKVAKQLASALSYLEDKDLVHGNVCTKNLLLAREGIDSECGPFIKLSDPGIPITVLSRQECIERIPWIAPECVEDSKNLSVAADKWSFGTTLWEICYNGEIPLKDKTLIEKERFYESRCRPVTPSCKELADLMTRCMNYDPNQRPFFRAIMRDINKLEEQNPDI
T2 sequence (P29597 589-875 limits assumed): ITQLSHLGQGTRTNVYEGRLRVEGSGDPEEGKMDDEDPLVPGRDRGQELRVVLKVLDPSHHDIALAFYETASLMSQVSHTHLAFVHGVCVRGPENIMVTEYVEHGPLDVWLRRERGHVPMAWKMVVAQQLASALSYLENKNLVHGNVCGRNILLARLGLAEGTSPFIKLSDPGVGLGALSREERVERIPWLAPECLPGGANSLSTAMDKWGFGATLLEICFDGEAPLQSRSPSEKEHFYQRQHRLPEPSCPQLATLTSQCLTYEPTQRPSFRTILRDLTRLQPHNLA

Structure (SMILES)	IC50 [1]	IC50 [2]	IC50 [3]	JAK1/TYK2 selectivity [3]
[2H]C([2H])([2H])C([2H])([2H])C(=O)c1cnc(NC(=O)C2CC2)cc1Nc1nn(C)c2ccc([C@H](O)C(F)(F)F)c(OC)c12 [Example 154, (S)-N-(4-((4-methoxy-1-methyl-5-(2,2,2-trifluoro-1-hydroxyethyl)-1H-indazol-3-yl)amino)-5-(propanoyl-d5)pyridin-2-yl)cyclopropanecarboxamide]	0.455 nM	6.88 nM	0.066 nM	104.27
[2H]C([2H])([2H])CC(=O)c1cnc(NC(=O)C2CC2)nc1Nc1cccc(-c2cnn(C)n2)c1OC [Example 167, N-(4-((2-methoxy-3-(2-methyl-2H-1,2,3-triazol-4-yl)phenyl)amino)-5-(propanoyl-3,3,3-d3)pyrimidin-2-yl)cyclopropanecarboxamide]	60.9 nM	32 nM	0.275 nM	116.34
COc1c(Nc2cc(NC(=O)C3CC3)ncc2C(C)(F)F)cccc1-c1cnn(C)n1 [Example 168, N-(5-(1,1-difluoroethyl)-4-((2-methoxy-3-(2-methyl-2H-1,2,3-triazol-4-yl)phenyl)amino)pyridin-2-yl)cyclopropanecarboxamide]	19.1 nM	1.03 nM	0.27 nM	3.81
COC(=O)c1cnc(Nc2ccc(F)cn2)cc1Nc1nn(C)c2ccc([C@H](OC)C(F)(F)F)c(OC)c12 [Example 169, Methyl (S)-6-((5-fluoropyridin-2-yl)amino)-4-((4-methoxy-1-methyl-5-(2,2,2-trifluoro-1-methoxyethyl)-1H-indazol-3-yl)amino)nicotinate]	8.33 nM	> 298 nM	0.19 nM	>1571
[2H]C([2H])([2H])NC(=O)c1cnc(Nc2ccc(F)cn2)cc1Nc1nn(C)c2ccc([C@H](OC)C(F)(F)F)c(OC)c12 [Example 171, (S)-6-((5-fluoropyridin-2-yl)amino)-4-((4-methoxy-1-methyl-5-(2,2,2-trifluoro-1-methoxyethyl)-1H-indazol-3-yl)amino)-N-(methyl-d3)nicotinamide]	1.03 nM	17 nM	0.171 nM	99.17
[2H]C([2H])([2H])OCc1ccc2c(c(Nc3cc(NC(=O)C4CC4)ncc3C(F)(F)CC)nn2C)c1OC [Example 172, N-(5-(1,1-difluoropropyl)-4-((4-methoxy-5-((methoxy-d3)methyl)-1-methyl-1H-indazol-3-yl)amino)pyridin-2-yl)cyclopropanecarboxamide]	21.9 nM	18.2 nM	0.79 nM	22.99
[2H]C([2H])([2H])NC(=O)c1cnc(Nc2ccc(N3CCOCC3)cn2)cc1Nc1nn(C)c2ccc([C@H](OC)C(F)(F)F)c(OC)c12 [Example 173, (S)-4-((4-methoxy-1-methyl-5-(2,2,2-trifluoro-1-methoxyethyl)-1H-indazol-3-yl)amino)-N-(methyl-d3)-6-((5-morpholinopyridin-2-yl)amino)nicotinamide]	0.401 nM	2.39 nM	0.161 nM	14.83
CCC(F)(F)c1cnc(NC(=O)C2CC2)cc1Nc1nccc(-c2cnn(C)n2)c1OC [Example 174, N-(5-(1,1-difluoropropyl)-4-((3-methoxy-4-(2-methyl-2H-1,2,3-triazol-4-yl)pyridin-2-yl)amino)pyridin-2-yl)cyclopropanecarboxamide]	15.4 nM	61.4 nM	0.86 nM	71.45
COC(=O)c1cnc(Nc2ccc(Cl)cn2)cc1Nc1nn(C)c2ccc([C@H](OC)C(F)(F)F)c(OC)c12 [Example 175, Methyl (S)-6-((5-chloropyridin-2-yl)amino)-4-((4-methoxy-1-methyl-5-(2,2,2-trifluoro-1-methoxyethyl)-1H-indazol-3-yl)amino)nicotinate]	18.1 nM	> 298 nM	0.384 nM	>777.34
COC1CN(c2ccc3nc(Nc4cc(NC(=O)C5CC5)ncc4C(C)(F)F)nn3c2)C1 [Example 176, N-(5-(1,1-difluoroethyl)-4-((6-(3-methoxyazetidin-1-yl)-[1,2,4]triazolo[1,5-a]pyridin-2-yl)amino)pyridin-2-yl)cyclopropanecarboxamide]	13.3 nM	17.1 nM	0.768 nM	22.21
COc1c(-c2cnn(C)n2)ccnc1Nc1cc(NC(=O)C2CC2)ncc1C(C)(F)F [Example 177, N-(5-(1,1-Difluoroethyl)-4-((3-methoxy-4-(2-methyl-2H-1,2,3-triazol-4-yl)pyridin-2-yl)amino)pyridin-2-yl)cyclopropanecarboxamide]	15.2 nM	6.37 nM	0.749 nM	8.50
COC(=O)c1cnc(Nc2ccn(C)n2)cc1Nc1nn(C)c2ccc([C@H](OC)C(F)(F)F)c(OC)c12 [Example 180, Methyl (S)-4-((4-methoxy-1-methyl-5-(2,2,2-trifluoro-1-methoxyethyl)-1H-indazol-3-yl)amino)-6-((1-methyl-1H-pyrazol-3-yl)amino)nicotinate]	14.3 nM	> 298 nM	0.176 nM	>1696
COCCn1ccc(Nc2cc(Nc3nn(C)c4ccc([C@H](OC)C(F)(F)F)c(OC)c34)c(C(=O)OC)cn2)n1 [Example 181, Methyl (S)-4-((4-methoxy-1-methyl-5-(2,2,2-trifluoro-1-methoxyethyl)-1H-indazol-3-yl)amino)-6-((1-(2-methoxyethyl)-1H-pyrazol-3-yl)amino)nicotinate]	35.2 nM	> 298 nM	0.309 nM	>966
[2H]C([2H])([2H])NC(=O)c1cnc(Nc2cc(CN3CCOCC3)n(C)n2)cc1Nc1nn(C)c2ccc([C@H](OC)C(F)(F)F)c(OC)c12 [Example 182, (S)-4-((4-Methoxy-1-methyl-5-(2,2,2-trifluoro-1-methoxyethyl)-1H-indazol-3-yl)amino)-N-(methyl-d3)-6-((1-methyl-5-(morpholinomethyl)-1H-pyrazol-3-yl)amino)nicotinamide]	0.817 nM	1.97 nM	0.141 nM	13.95
CCC(F)(F)c1cnc(NC(=O)C2CC2)cc1Nc1cccc(-c2cnn(C)n2)c1OC [Example 184, N-(5-(1,1-Difluoropropyl)-4-((2-methoxy-3-(2-methyl-2H-1,2,3-triazol-4-yl)phenyl)amino)pyridin-2-yl)cyclopropanecarboxamide]	14.9 nM	6.85 nM	0.216 nM	31.71
CNC(=O)c1nnc(NC(=O)C2CC2)cc1Nc1nc2ccccn2n1 [Example 185, 4-([1,2,4]Triazolo[1,5-a]pyridin-2-ylamino)-6-(cyclopropanecarboxamido)-N-methylpyridazine-3-carboxamide]	89.1 nM	9.21 nM	0.565 nM	16.30
CNC(=O)c1cnc(NC(=O)C2CC2)cc1Nc1nn(C)c2ccc([C@H](O)C(F)(F)F)c(OC)c12 [Example 189, (S)-6-(Cyclopropanecarboxamido)-4-((4-methoxy-1-methyl-5-(2,2,2-trifluoro-1-hydroxyethyl)-1H-indazol-3-yl)amino)-N-methylnicotinamide]	0.119 nM	3.5 nM	0.054 nM	64.91
CNC(=O)c1cnc(NC(=O)C2CC2)cc1Nc1nn(C)c2ccc([C@H](OC)C(F)(F)F)c(OC)c12 [Example 190, (S)-6-(Cyclopropanecarboxamido)-4-((4-methoxy-1-methyl-5-(2,2,2-trifluoro-1-methoxyethyl)-1H-indazol-3-yl)amino)-N-methylnicotinamide]	0.196 nM	1.95 nM	0.076 nM	25.71
[2H]C([2H])([2H])NC(=O)c1cnc(NC(=O)C2CC2)cc1Nc1nn(C)c2ccc(C(C)C(F)(F)F)c(OC)c12 (centres unmarked) [Example 191, 6-(Cyclopropanecarboxamido)-4-((4-methoxy-1-methyl-5-(1,1,1-trifluoropropan-2-yl)-1H-indazol-3-yl)amino)-N-(methyl-d3)nicotinamide]	2.51 nM	5.96 nM	0.132 nM	45.15
[2H]C([2H])([2H])NC(=O)c1cnc(NC(=O)[C@@H]2C[C@@H]2F)cc1Nc1nn(C)c2ccc([C@H](O)C(F)(F)F)c(OC)c12 [Example 194, 6-((1S,2S)-2-Fluorocyclopropane-1-carboxamido)-4-((4-methoxy-1-methyl-5-((S)-2,2,2-trifluoro-1-hydroxyethyl)-1H-indazol-3-yl)amino)-N-(methyl-d3)nicotinamide]	0.241 nM	3.9 nM	0.08 nM	48.8
